In assay [1] the target is T1, BTK (Homo sapiens (Human), UniProt Q06187). As to the kind of experiment: BTK Ramos cellular assay (PLCγ2 phosphorylation). To be noted: Ramos cells, 1 hour compound, anti-IgM stimulation, p-PLCγ2; read-out: BTK Inhibition (IC50), BTK Ramos cellular inhibition. The class given is cell-based. Here is the method: Ramos cells were grown in suspension in T225 flasks, spun down, resuspended in 50 ml serum-free media and incubated for 1 hour. […] Ramos cells were incubated with compound for 1 hour, washed again and resuspended in 100 ul serum-free media. Cells were then stimulated with 1 μg of goat F(ab′)2 Anti-Human IgM and incubated on ice for 10 minutes to activate B cell receptor signaling pathways. After 10 minutes, the cells were washed once with PBS and then lysed on ice with Invitrogen Cell Extraction buffer. 16 μg total protein from lysates were loaded on gel and blots were probed for phosphorylation of the BTK substrate PLCγ2.
T1 sequence (Q06187 whole entry): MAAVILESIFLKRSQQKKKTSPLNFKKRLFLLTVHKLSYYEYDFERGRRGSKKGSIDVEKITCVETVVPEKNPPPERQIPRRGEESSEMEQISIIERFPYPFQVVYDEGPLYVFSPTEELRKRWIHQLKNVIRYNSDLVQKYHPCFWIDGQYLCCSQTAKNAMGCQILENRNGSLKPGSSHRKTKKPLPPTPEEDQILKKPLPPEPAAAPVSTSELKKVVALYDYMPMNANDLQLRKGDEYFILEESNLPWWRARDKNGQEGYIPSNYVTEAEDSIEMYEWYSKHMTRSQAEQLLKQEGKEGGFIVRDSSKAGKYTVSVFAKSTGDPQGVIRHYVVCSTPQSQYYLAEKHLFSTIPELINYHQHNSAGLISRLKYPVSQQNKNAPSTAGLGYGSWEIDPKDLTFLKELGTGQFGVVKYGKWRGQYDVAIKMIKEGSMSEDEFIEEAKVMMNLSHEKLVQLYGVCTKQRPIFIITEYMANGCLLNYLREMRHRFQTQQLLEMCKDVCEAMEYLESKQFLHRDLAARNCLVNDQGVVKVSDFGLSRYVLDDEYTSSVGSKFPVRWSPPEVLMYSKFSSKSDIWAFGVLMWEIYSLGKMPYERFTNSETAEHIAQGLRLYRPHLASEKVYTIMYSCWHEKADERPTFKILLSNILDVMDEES

Assay [2] concerns the target T1, BTK. The assay can be described thus: Omnia assay for potency assessment against BTK. It is filed as biochemical. As to conditions: [BTK]=5 nM, Omnia assay; read-out: BTK Inhibition (IC50). Here is the method: The modified BTK-optimized reagent conditions for the above protocol are:
[BTK]=5 nM, [ATP]=[…], [Y5-Sox]=[…] (ATP KMapp˜[…]).

The target in a further assay is ITK (Homo sapiens (Human), UniProt Q08881). The assay can be described thus: Omnia assay for potency assessment against active forms of ITK kinase. To be noted: [ITK]=10 nM, [ATP]=25, [Y6-Sox]=10 μM; read-out: ITK Inhibition. The class given is biochemical. Here is the method: [ITK]=10 nM, [ATP]=25 [Y6-Sox]=10 μM (ATP KMapp=33 μM).
Chain of ITK (Q08881 whole entry): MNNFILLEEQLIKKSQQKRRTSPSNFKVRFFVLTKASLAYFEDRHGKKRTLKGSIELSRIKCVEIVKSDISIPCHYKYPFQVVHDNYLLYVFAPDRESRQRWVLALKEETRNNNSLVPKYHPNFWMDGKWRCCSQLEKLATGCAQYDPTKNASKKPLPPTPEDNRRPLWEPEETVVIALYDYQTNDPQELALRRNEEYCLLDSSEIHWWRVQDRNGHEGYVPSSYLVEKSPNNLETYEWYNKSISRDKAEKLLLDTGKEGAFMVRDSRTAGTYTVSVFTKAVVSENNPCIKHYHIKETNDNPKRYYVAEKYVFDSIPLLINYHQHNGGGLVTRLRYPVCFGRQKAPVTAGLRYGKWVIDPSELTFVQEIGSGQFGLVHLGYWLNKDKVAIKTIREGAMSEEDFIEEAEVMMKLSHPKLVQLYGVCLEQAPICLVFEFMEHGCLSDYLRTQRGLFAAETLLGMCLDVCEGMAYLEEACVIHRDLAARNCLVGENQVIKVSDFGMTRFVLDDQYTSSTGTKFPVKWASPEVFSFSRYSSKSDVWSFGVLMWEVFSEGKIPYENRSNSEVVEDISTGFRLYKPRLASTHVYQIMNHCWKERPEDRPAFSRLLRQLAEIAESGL
In the next assay the target is EGFR-WT (Homo sapiens (Human), UniProt P00533). As to the kind of experiment: Omnia assay for potency assessment against EGFR (WT).
Chain of EGFR-WT (P00533 668-1210): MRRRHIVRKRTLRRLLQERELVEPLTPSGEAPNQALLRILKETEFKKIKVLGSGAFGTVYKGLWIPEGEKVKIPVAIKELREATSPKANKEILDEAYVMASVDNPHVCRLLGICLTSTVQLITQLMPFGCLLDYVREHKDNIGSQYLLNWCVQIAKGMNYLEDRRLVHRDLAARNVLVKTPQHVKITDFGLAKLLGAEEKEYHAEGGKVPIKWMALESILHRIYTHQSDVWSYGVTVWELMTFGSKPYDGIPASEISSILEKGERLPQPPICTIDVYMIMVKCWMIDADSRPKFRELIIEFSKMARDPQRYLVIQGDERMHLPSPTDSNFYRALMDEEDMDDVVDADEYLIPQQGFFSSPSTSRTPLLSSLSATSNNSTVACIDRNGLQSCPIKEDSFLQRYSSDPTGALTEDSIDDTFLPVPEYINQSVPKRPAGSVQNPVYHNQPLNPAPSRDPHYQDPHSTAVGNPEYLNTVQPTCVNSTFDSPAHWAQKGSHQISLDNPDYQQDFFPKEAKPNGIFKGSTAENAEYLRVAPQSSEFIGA
[3] abbreviates: read-out: EGFR (wild type inhibition), EGFR wild type.

Where two headings read alike, the source gives them in different places. Where only a bound is given, the exact number is not on record here.

`[2H]C([2H])([2H])Oc1ccc(Nc2ncc(F)c(Nc3cccc(NC(=O)C=C)c3)n2)cn1` [Compound I-95, N-(3-(5-fluoro-2-(6-(trideutereomethoxy)pyridine-3-ylamino)pyrimidin-4-ylamino)phenyl)acrylamide]: the IC50 is < 10 nM on BTK [1], < 10 nM on BTK [2], 10 to 100 nM at ITK and 100 to 1000 nM at EGFR-WT.

With `C=CC(=O)N1CCOc2ccc(Nc3nc(Nc4ccc(OCCOC)cc4)ncc3C(C)=O)cc21` [Compound I-150, 1-(6-{5-Acetyl-2-[4-(2-methoxy-ethoxy)-phenylamino]-pyrimidin-4-ylamino}-2,3-dihydro-benzo[1,4]oxazin-4-yl)-propenone], the IC50 on BTK [1] is 10 to 100 nM; on BTK [2], < 10 nM; at ITK, < 10 nM; at EGFR-WT (setting [3]), < 10 nM.

With `C=CC(=O)N1CCC[C@@H](Nc2nc(Nc3ccc(OC)nc3)ncc2F)C1` [Compound I-202, (R)-1-(3-(5-fluoro-2-(6-methoxypyridin-3-ylamino)pyrimidin-4-ylamino)piperidin-1-yl)prop-2-en-1-one], the IC50 is 100 to 1000 nM at BTK [1], < 10 nM at BTK [2], 100 to 1000 nM at ITK and 100 to 1000 nM against EGFR-WT.

`C=CC(=O)N1Cc2ccc(Nc3nc(Nc4ccc(OC)nc4)ncc3F)cc2C1` [Compound I-165, 1-(5-(5-fluoro-2-(6-methoxypyridin-3-ylamino)pyrimidin-4-ylamino)isoindolin-2-yl)prop-2-en-1-one]: the IC50 is 10 to 100 nM on BTK [1], < 10 nM on BTK [2], < 10 nM on ITK and 100 to 1000 nM against EGFR-WT.

Regarding `C=CC(=O)Nc1cccc(Nc2nc(Nc3ccc(Cl)c(OCCOC)c3)ncc2F)c1` [Compound I-321, N-(3-(2-(4-chloro-3-(2-methoxyethoxy)phenylamino)-5-fluoropyrimidin-4-ylamino)phenyl)acrylamide], the IC50 on BTK [1] was < 10 nM; at BTK [2] it was < 10 nM; on ITK, 100 to 1000 nM; at EGFR-WT, 100 to 1000 nM.

`C=CC(=O)N1CCc2ccc(Nc3nc(Nc4ccc(OC)nc4)ncc3F)cc21` [Compound I-166, 1-(6-(5-fluoro-2-(6-methoxypyridin-3-ylamino)pyrimidin-4-ylamino)indolin-1-yl)prop-2-en-1-one]: the IC50 on BTK [1] is 10 to 100 nM; on BTK [2] it was < 10 nM; on ITK it was < 10 nM; on EGFR-WT, 100 to 1000 nM.

Take `C=CC(=O)Nc1cccc(Nc2nc(Nc3ccc4c(c3)N(C(=O)C(F)(F)F)CCO4)ncc2F)c1` [Compound I-143, N-(3-(2-(4-trifluoroacetyl-2,3-dihydrobenzo[1,4]oxazin-6-yl)amino-5-fluoropyrimidin-4-ylamino)phenyl)acrylamide]: the IC50 is < 10 nM at BTK [1], < 10 nM at BTK [2], 10 to 100 nM at ITK and 10 to 100 nM against EGFR-WT.

`C=CC(=O)Nc1cccc(Nc2nc(Nc3ccc(OCCCNC(=O)OC(C)(C)C)cc3)ncc2F)c1` [Compound I-198, tert-butyl 3-(4-(4-(3-acrylamidophenylamino)-5-fluoropyrimidin-2-ylamino)phenoxy)propylcarbamate]: the IC50 is < 10 nM on BTK [1], < 10 nM at BTK [2], 100 to 1000 nM at ITK and < 10 nM on EGFR-WT (setting [3]).

As to `C=CC(=O)Nc1cccc(Nc2nc(Nc3ccc4c(cnn4C(=O)OC(C)(C)C)c3)ncc2F)c1` [Compound I-151], the IC50 is < 10 nM on BTK [1], < 10 nM at BTK [2], 10 to 100 nM at ITK and 10 to 100 nM on EGFR-WT.

On to `C=CC(=O)Nc1cccc(Nc2nc(Nc3ccc4[nH]ncc4c3)ncc2F)c1` [Compound I-156], for which the IC50 at BTK [1], on BTK [2], on ITK and on EGFR-WT (setting [3]) was < 10 nM in each case.

For `C=CC(=O)Nc1cccc(Nc2nc(Nc3cccc(OCC(=O)N4CCOCC4)c3)ncc2F)c1` [Compound I-110, N-(3-(5-fluoro-2-(3-(2-morpholino-2-oxoethoxy)phenylamino)pyrimidin-4-ylamino)phenyl)acrylamide], the IC50 on BTK [1] was 10 to 100 nM; on BTK [2] it was < 10 nM; at ITK, 10 to 100 nM; against EGFR-WT, 10 to 100 nM.

Consider `C=CC(=O)Nc1cccc(Nc2nc(Nc3cccc(OCCCN4CCOCC4)c3)ncc2F)c1` [Compound I-208, N-(3-(5-fluoro-2-(3-(3-morpholinopropoxy)phenylamino)pyrimidin-4-ylamino)phenyl)acrylamide], for which the IC50 was 10 to 100 nM on BTK [1], < 10 nM on BTK [2], 10 to 100 nM on ITK and 10 to 100 nM against EGFR-WT.

As for `C=CC(=O)Nc1cccc(Nc2nc(Nc3ccc(OC)nc3)ncc2C(N)=O)c1` [Compound I-209, 4-(3-acrylamidophenylamino)-2-(6-methoxypyridin-3-ylamino)pyrimidine-5-carboxamide], the IC50 on BTK [1] is 10 to 100 nM; on BTK [2] it was < 10 nM; at ITK it was < 10 nM; at EGFR-WT it was 10 to 100 nM.

Regarding `C=CC(=O)Nc1cccc(Nc2nc(Nc3ccc(OCCCS(C)(=O)=O)c(F)c3)ncc2F)c1` [Compound I-318, N-(3-(5-fluoro-2-(3-fluoro-4-(3-(methylsulfonyl)propoxy)phenylamino)pyrimidin-4-ylamino)phenyl)acrylamide], the IC50 at BTK [1] was < 10 nM; on BTK [2] it was < 10 nM; on ITK, 10 to 100 nM; at EGFR-WT, 10 to 100 nM.

For the molecule `C=CC(=O)Nc1cccc(Nc2nc(Nc3ccc(OCCOC)cc3)ncc2C(C)=O)c1` [Compound I-124, N-(3-{5-Acetyl-2-[4-(2-methoxy-ethoxy)-phenylamino]-pyrimidin-4-ylamino}-phenyl)-acrylamide], the IC50 is < 10 nM on BTK [1], < 10 nM on BTK [2], < 10 nM at ITK and 10 to 100 nM on EGFR-WT.

`C=CC(=O)Nc1cccc(Nc2nc(Nc3ccc(N(C)CCOC)nc3)ncc2F)c1` [Compound I-77]: the IC50 at BTK [1] was < 10 nM; at BTK [2] it was < 10 nM; at ITK, 10 to 100 nM; at EGFR-WT, 10 to 100 nM.

In the case of `C=CC(=O)Nc1cccc(Nc2nc(Nc3cccc(S(N)(=O)=O)c3)ncc2F)c1` [Compound I-160, N-(3-(5-fluoro-2-(3-sulfamoylphenylamino)pyrimidin-4-ylamino)phenyl)acrylamide], the IC50 on BTK [1] was 10 to 100 nM; at BTK [2], < 10 nM; at ITK, < 10 nM; on EGFR-WT (setting [3]), < 10 nM.

Regarding `C=CC(=O)Nc1cc(Nc2nc(Nc3ccc(OCCOC)cc3)ncc2F)ccc1Cl` [Compound I-108, N-(2-chloro-5-(5-fluoro-2-(4-(2-methoxyethoxy)phenylamino)pyrimidin-4-ylamino)phenyl)acrylamide], the IC50 at BTK [1] was 10 to 100 nM; at BTK [2] it was < 10 nM; on ITK, 10 to 100 nM; against EGFR-WT it was 100 to 1000 nM.

In the case of `C=CC(=O)Nc1cccc(Nc2nc(Nc3ccc(OCC(C)(C)O)nc3)ncc2F)c1` [Compound I-313, N-(3-(5-fluoro-2-(6-(2-hydroxy-2-methylpropoxy)pyridin-3-ylamino)pyrimidin-4-ylamino)phenyl)acrylamide], the IC50 at BTK [1] was < 10 nM; on BTK [2] it was < 10 nM; on ITK it was 10 to 100 nM; against EGFR-WT it was 10 to 100 nM.

(Values after patent publication US9987276B2 (Celgene CAR LLC, priority 2008, dated 2018).)
